The text below walks through data of patent publication US5990094A, “Inhibitors of sorotonin N-acetyltransferase” (The Rockefeller University, priority 1998, dated 1999).

In data set [1] the target is T1, GST-AANAT (Ovis aries, UniProt Q29495).
T1 construct: The entire open reading frame of the DNA encoding sheep AANAT in the plasmid vector pET15b; made in house; host or cells: Escherichia coli BL21(DE3)pLysS
Put plainly: Effect of DTNB on GST-AANAT activity. Type of data set: biochemical, sheep. How it is done: The potential difficulty with this approach was that reducing agents such as dithiothreitol and β-mercaptoethanol react with DTNB (Ellman's reagent). Indeed, GST-AANAT is somewhat unstable in the absence of reducing agents, losing greater than 50% activity within 2 h at 4° C. (data not shown). However, the enzyme was stable within the short incubation periods used in these studies (less than 3 min). It was shown unequivocally that CoASH generation was coupled tightly to N-acetyltryptamine formation, and the activity was linear with time and enzyme concentration.

The target of data set [2] is T1, GST-AANAT. In words: Two-substrate steady state kinetics with GST-AANAT. Type of data set: biochemical, sheep. How it is done:
DTNB Product Detection Assay
This assay is based on the detection of CoASH generated during acetyl transfer by reaction with the thiol reagent DTNB (19). […] Reactions were initiated with enzyme (3 μl, 5-30 nM final concentration) that had been prediluted (10-100 fold) in 50 mM sodium phosphate, 500 mM NaCl, 2 mM EDTA, and 0.05 mg/ml bovine serum albumin in the absence of reducing agent immediately before use and maintained on ice during the assay. The reactions were quenched for 0-3 min with 0.6 ml of a buffer containing guanidinium-HCl (3.2 M), sodium phosphate (0.1 M), pH 6.8. […] Background absorbances (with all components added including enzyme) were measured and subtracted from the total absorbance.
Two-Substrate Kinetic Measurements
Two substrate kinetic analysis was performed with substrate concentrations given in FIG. 3, and the data were fitted to the sequential (ternary complex) mechanism equation (Equation 2) using the computer program Kinet-Asyst II™ (IntelliKinetics, State College, Pa.) based on the algorithms of Cleland (20),
.upsilon.=Vm ·A·B/(Ka ·Kb
·Kma ·B+Kmb ·A+A·B)(Eq. 2)
using a nonlinear least squares approach.

The conditions of data set [3]: people; cited from earlier work.
Data set [4] deals with intracellular receptors for melatonin. Conditions: intracellular orphan receptors vs G-protein family; cited from earlier work.
In another data set the test system is AANAT. The following applies: 2-fluorohistidine replaces histidine; cited from earlier work.

Read-outs that look alike come from different tables or passages of the source.

T1 sequence (Q29495 other isoform, or with tags, fused parts or gaps): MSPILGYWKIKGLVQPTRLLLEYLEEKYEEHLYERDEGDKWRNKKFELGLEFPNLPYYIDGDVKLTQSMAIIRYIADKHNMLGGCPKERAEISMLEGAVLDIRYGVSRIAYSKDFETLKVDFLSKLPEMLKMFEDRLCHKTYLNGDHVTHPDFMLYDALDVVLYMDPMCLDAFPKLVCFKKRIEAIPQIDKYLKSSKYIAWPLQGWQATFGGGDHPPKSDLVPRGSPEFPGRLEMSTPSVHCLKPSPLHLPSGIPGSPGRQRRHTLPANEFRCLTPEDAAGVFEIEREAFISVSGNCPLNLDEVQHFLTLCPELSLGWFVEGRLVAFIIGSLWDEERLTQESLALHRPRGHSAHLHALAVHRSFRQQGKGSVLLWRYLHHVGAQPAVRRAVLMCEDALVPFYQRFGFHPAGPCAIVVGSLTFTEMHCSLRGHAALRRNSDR

On to `O=C(O)c1cc(SSc2ccc([N+](=O)[O-])c(C(=O)O)c2)ccc1[N+](=O)[O-]` [DTNB, 5,5'-dithiobis-(2-nitrobenzoic acid], for which the “effect on GST-AANAT activity” value at GST-AANAT [1] was “inhibited GST-AANAT activity”. Turning to `CC(=O)SCCNC(=O)CCNC(=O)[C@H](O)C(C)(C)COP(=O)(O)OP(=O)(O)OC[C@H]1O[C@@H](n2cnc3c(N)ncnc32)[C@H](O)[C@@H]1OP(=O)(O)O` [Acetyl-CoA, acetyl-CoA], the Kd on GST-AANAT [2] (ordered sequential mechanism, read-out: Kin (dissociation constant of the first binding substrate)) was 509 ± 156 µM; at GST-AANAT [2] (read-out: dissociation constant (Kd)) it was 510 µM.

On to `COc1ccc2[nH]cc(CCNC(C)=O)c2c1` [Melatonin, 5-methoxy-N-acetyltryptamine], for which the oral bioavailability variability in data set [3] is on record as 25 fold range. The “Kd of binding and activation, higher compared to G-protein family receptors” value in data set [4] was 10-100 fold. As to `N[C@@H](Cc1c[nH]c(F)n1)C(=O)O` [2-fluorohistidine], the “induction of AANAT in the pineal” value in the data set on AANAT is on record as “induction of AANAT in the pineal is blocked”.
